Converted amounts (≈) assume the structure as drawn.

Results on 2 compounds are retold here after US8048903B2, “5-iodotetrazoles” (LANXESS Deutschland GmbH, priority 2004, dated 2011).

One series has as its system Aspergillus niger. Briefly: Minimum inhibitory concentration (MIC) against fungi on malt extract agar. It is filed as cell-based. Conditions: 336 h, 2 weeks at 28° C., 60 to 70% relative atmospheric humidity, read-out: Minimum inhibitory concentrations Aspergillus niger. On the procedure: (§1) In each case, the active compounds according to the invention, in concentrations of from 0.1 mg/l to 5000 mg/l, were added to an agar which had been prepared using malt extracts. The MIC was determined after 2 weeks of storage at 28° C. and 60 to 70% relative atmospheric humidity. The MIC is the lowest concentration of active compound at which there is no colonization by the microbial species used.

A further series has as its system Chaetomium globosum. Described as above. It is filed as cell-based. The note with it: 336 h, 2 weeks at 28° C., 60 to 70% relative atmospheric humidity, read-out: Minimum inhibitory concentrations Chaetomium globosum. On the procedure:
as §1

The next series concerns Penicillium brevicaule. The series is described as above. Conditions: 336 h, 2 weeks at 28° C., 60 to 70% relative atmospheric humidity, read-out: Minimum inhibitory concentrations Penicillium brevicaule. The format is cell-based. On the procedure: as §1
The test system of series [1] is mold fungi (Alternaria tenuis, Aspergillus flavus, Aspergillus niger, Aspergillus ustus, Cindosporum herbarum, Paecilomyces variotii, Penicillium citrium …). The series is described as follows: Test of dispersion coatings for resistance to mold. The format is cell-based. The note with it: coatings according to recipe A containing 1.0% (based on solids) of compound; even after rinsing out and wind tunnel exposure; 2-3 weeks, 29±1° C., 80-90% rel. humidity. How it is done:
To test dispersion coatings for resistance to mold, the following procedure was adopted:
The paint to be tested was applied to both sides of a suitable base. To obtain results which are close to practice, some of the test specimens were rinsed out with running water (24 h, 20° C.) before the test for mold resistance; others were treated with a current of warm fresh air (7 days, 40° C.).
The samples prepared in this way were then placed on an agar nutrient medium, and both samples and nutrient medium were contaminated with fungal spores. After 2-3 weeks storage (29±1° C., 80-90% rel. atmospheric humidity), the samples were compared.
The coating is considered to be permanently mold-resistant if the sample remains free from fungus or at most a slight border infestation can be detected.
For the contamination, fungal spores of the following mold fungi were used, which are known as paint destroyers or are frequently encountered on coatings: […]

Regarding `CCCCn1nnnc1I` [Example 1, 5-Iodo-1-butyltetrazole], the melting point (as a rule, the temperature, or range, at which the solid turns liquid) is 31 to 37 °C. Also, the MIC in the series with Aspergillus niger amounted to 5 µg/mL (≈ 19.8 µM). In addition, the MIC in the series with Chaetomium globosum came to 5 µg/mL (≈ 19.8 µM). For the same compound, the MIC in the series with Penicillium brevicaule is below 1 µg/mL.

For the compound `Ic1nnnn1-c1ccccc1` [Example 2, 5-Iodo-1-phenyltetrazole], the melting point is 123 to 129 °C. The MIC in the series on Aspergillus niger was below 40 µg/mL. For the same compound, in the series on Chaetomium globosum, the MIC is below 40 µg/mL. The MIC with Penicillium brevicaule is below 40 µg/mL. Besides, the “Mold resistance of coating” value in series [1] is “mold resistant”.
